Experimental data as given in the NIST ThermoML archive (doi:10.1016/j.jct.2017.03.006).
± gives the expanded uncertainty stated by the source.

Test: xn = mol fraction of the nth substance listed
Settings: Liquid, x1 = 1; for mass density: Vibrating tube method; for viscosity: Concentric cylinders viscometry

CCC(C)O (stereo unspecified) [butan-2-ol] + Cc1ccc(C)c(C)c1
Settings | mass density [kg/m3] | viscosity [mPa·s]
273.15 K, 100 kPa | 822.3 ± 0.7 | –
273.15 K, 1000 kPa | 822.7 ± 0.7 | –
273.15 K, 2000 kPa | 823.4 ± 0.7 | –
273.15 K, 5000 kPa | 825.4 ± 0.7 | –
273.15 K, 10000 kPa | 828.7 ± 0.7 | –
273.15 K, 15000 kPa | 831.8 ± 0.7 | –
273.15 K, 20000 kPa | 834.7 ± 0.7 | –
273.15 K, 30000 kPa | 840.4 ± 0.8 | –
273.15 K, 40000 kPa | 845.7 ± 0.8 | –
273.15 K, 50000 kPa | 850.7 ± 0.8 | –
273.15 K, 60000 kPa | 855.4 ± 0.8 | –
273.15 K, 70000 kPa | 859.9 ± 0.8 | –
273.15 K, 80000 kPa | 864.3 ± 0.8 | –
273.15 K, 90000 kPa | 868.4 ± 0.9 | –
273.15 K, 100000 kPa | 872.4 ± 0.9 | –
273.15 K, 110000 kPa | 876.3 ± 0.9 | –
273.15 K, 120000 kPa | 879.9 ± 0.9 | –
273.15 K, 130000 kPa | 883.5 ± 0.9 | –
273.15 K, 140000 kPa | 887.2 ± 0.9 | –
293.15 K, 100 kPa | 806.3 ± 0.7 | 3.725 ± 0.076
293.15 K, 1000 kPa | 807 ± 0.7 | –
293.15 K, 2000 kPa | 807.8 ± 0.7 | –
293.15 K, 5000 kPa | 810 ± 0.7 | –
293.15 K, 10000 kPa | 813.6 ± 0.7 | –
293.15 K, 15000 kPa | 817 ± 0.7 | –
293.15 K, 20000 kPa | 820.2 ± 0.7 | –
293.15 K, 30000 kPa | 826.5 ± 0.8 | –
293.15 K, 40000 kPa | 832.3 ± 0.8 | –
293.15 K, 50000 kPa | 837.7 ± 0.8 | –
293.15 K, 60000 kPa | 842.8 ± 0.8 | –
293.15 K, 70000 kPa | 847.7 ± 0.8 | –
293.15 K, 80000 kPa | 852.3 ± 0.9 | –
293.15 K, 90000 kPa | 856.7 ± 0.9 | –
293.15 K, 100000 kPa | 860.9 ± 0.9 | –
293.15 K, 110000 kPa | 865 ± 0.9 | –
293.15 K, 120000 kPa | 868.8 ± 1 | –
293.15 K, 130000 kPa | 872.7 ± 1 | –
293.15 K, 140000 kPa | 876.3 ± 1 | –
303.15 K, 100 kPa | – | 2.555 ± 0.053
313.15 K, 100 kPa | 789.4 ± 0.7 | 1.814 ± 0.038
313.15 K, 1000 kPa | 790.1 ± 0.7 | –
313.15 K, 2000 kPa | 791 ± 0.7 | –
313.15 K, 5000 kPa | 793.5 ± 0.7 | –
313.15 K, 10000 kPa | 797.5 ± 0.7 | –
313.15 K, 15000 kPa | 801.4 ± 0.7 | –
313.15 K, 20000 kPa | 805.1 ± 0.7 | –
313.15 K, 30000 kPa | 811.9 ± 0.8 | –
313.15 K, 40000 kPa | 818.3 ± 0.8 | –
313.15 K, 50000 kPa | 824.1 ± 0.8 | –
313.15 K, 60000 kPa | 829.6 ± 0.8 | –
313.15 K, 70000 kPa | 835 ± 0.9 | –
313.15 K, 80000 kPa | 839.9 ± 0.9 | –
313.15 K, 90000 kPa | 844.6 ± 0.9 | –
313.15 K, 100000 kPa | 849 ± 0.9 | –
313.15 K, 110000 kPa | 853.3 ± 1 | –
313.15 K, 120000 kPa | 857.5 ± 1 | –
313.15 K, 130000 kPa | 861.5 ± 1 | –
313.15 K, 140000 kPa | 865.4 ± 1 | –
323.15 K, 100 kPa | – | 1.331 ± 0.028
333.15 K, 100 kPa | 770.7 ± 0.7 | 1.007 ± 0.021
333.15 K, 1000 kPa | 771.6 ± 0.7 | –
333.15 K, 2000 kPa | 772.6 ± 0.7 | –
333.15 K, 5000 kPa | 775.5 ± 0.7 | –
333.15 K, 10000 kPa | 780.1 ± 0.7 | –
333.15 K, 15000 kPa | 784.4 ± 0.7 | –
333.15 K, 20000 kPa | 788.6 ± 0.7 | –
333.15 K, 30000 kPa | 796.2 ± 0.8 | –
333.15 K, 40000 kPa | 803.2 ± 0.8 | –
333.15 K, 50000 kPa | 809.6 ± 0.8 | –
333.15 K, 60000 kPa | 815.7 ± 0.9 | –
333.15 K, 70000 kPa | 821.4 ± 0.9 | –
333.15 K, 80000 kPa | 826.7 ± 0.9 | –
333.15 K, 90000 kPa | 831.8 ± 0.9 | –
333.15 K, 100000 kPa | 836.6 ± 1 | –
333.15 K, 110000 kPa | 841.2 ± 1 | –
333.15 K, 120000 kPa | 845.5 ± 1 | –
333.15 K, 130000 kPa | 849.8 ± 1.1 | –
333.15 K, 140000 kPa | 853.9 ± 1.1 | –
